# Measurements taken from patent publication US20070142396A1, “Treatment of pain with 1-[3-[4-(3-chlorophenyl)-1-piperazinyl]propyl]-5-methoxy-3,4-dihydro-2(1H)-quinolone or salt thereof” (Vela Pharmaceuticals, Inc., priority 2005, published 2007).
# Columns and labels:
# Format in all cases: in vivo, rat
# [1] = system: rats with spinal nerve ligature (Chung neuropathic pain model); experiment: Chung spinal nerve ligation (L5 and L6) neuropathic pain model, tactile stimulation with electronic Von Frey probe (Example 2)
# Description: (§1) The Chung neuropathic pain model (Kim and Chung, Pain, 50: 355-363, 1992), employs spinal nerve ligation (SNL) in a rat. Tight ligature of spinal nerves in a rat is associated with hyperalgesia, allodynia and spontaneous pain. Antihyperalgesics reduce these chronic signs of pain hypersensitivity. Thus, the Chung model permits testing of the antihyperalgesic activity of compounds in rats with neuropathic pain. The Chung model constitutes a model for peripheral neuropathic pain in humans, and was employed as follows.
# (§2) Male Rj: Wistar (Han) rats, weighing 264-369 g at the beginning of the experiment, were obtained from Elevage Janvier, 53940 Le Genest-Saint-Isle, France. The rats were acclimatized to laboratory conditions for at least 5 days before the surgery phase of the experiment. The rats were housed in groups of five in macrolon cages (41×25×14 cm) on wood litter (Litalabo—SPPS, 95100 Argenteuil, France) with free access to food (code 113—SAFE, 91360 Epinay-sur-Orge, France) and water until tested. The animal houses were maintained under artificial lighting (12 hours) between 7:00 AM and 7:00 PM in a controlled ambient temperature of 21±3° C., and with relative humidity maintained at 40-70%.
# (§3) Rats (264-369 g) were anesthetized with sodium pentobarbital (50 mg/kg i.p.), and an incision at the L4-S2 level was made to expose the left L5 and L6 spinal nerves. A ligature was tied tightly around each nerve. The wound was then sutured. The rats received an i.m. injection of 50,000 IU penicillin G and were allowed to recover. At least 2 weeks after the surgery, when the chronic state was fully installed, rats were submitted consecutively to tactile and thermal stimulation of both the non-lesioned and the lesioned hindpaws.
# (§4) Doses of OPC-14523 were prepared in stock solutions (weight per volume, W/V), then in dilutions (volume per volume, V/V), as appropriate. The compound was dispersed in 0.5% tragacanth in distilled water. Morphine was dissolved in physiological saline as a reference standard for treatment of pain. The solutions for the test and reference substances were prepared fresh on the day of the experiment.
# (§5) The vehicle, OPC-14523, and reference (morphine) compound were each administered in a volume of 5 ml/kg body weight. The doses of OPC-14523 were expressed in mg of substance per kg body weight and administered orally (p.o.). The vehicle control was also administered orally. The dose of morphine was expressed in mg of hydrochloride salt per kg body weight and administered i.p.
# (§6) Each animal was tested at 30 minutes, 1 hour, 2 hours and 4 hours after the administration of a substance. Testing occurred in the morning.
# (§7) To evaluate chronic drug administration and hypersensitivity induction, animals received a second substance treatment in the afternoon, after acute testing. The animals then received twice-daily substance treatment for an additional 9 days. To test for induction of hypersensitivity, the animals were tested, on the ninth day, 30 minutes before the first substance administration in the morning. The effect of chronic administration was tested on the tenth day 30 minutes, 1 hour, 2 hours and 4 hours after the administration of the substance in the morning.
# (§8) For tactile stimulation, the animal was placed under an inverted Plexiglas® box (17×11×14 cm) on a grid floor. The tip of an electronic Von Frey probe (Bioseb, Model 1610, Chaville, France) was applied with increasing pressure to the non-lesioned hindpaw or the lesioned hindpaw. The force required to induce paw withdrawal was automatically recorded. This procedure was carried out three times for each paw, and the mean force per paw was calculated to provide basic scores per animal.
# Prior to receiving drug treatment, all animals were submitted to tactile stimulation and assigned to treatment groups, matched on the basis of their pain response. Each treatment group consisted of eight rats. The testing was performed blind. […]
# [2] = system: rats with spinal nerve ligature (Chung neuropathic pain model); experiment: Chung neuropathic pain model, tactile stimulation, second experiment (Example 3); details: acute, morphine 128 mg/kg p.o.; for change of force inducing paw withdrawal vs vehicle: lesioned paw
# Protocol: as §8
# (§9) The rats used in this experiment were the same rats used in Example 2. The materials and methods for this experiment were identical to those for Example 2 with the following exceptions: there was a 1-week washout between the two experiments, and the rats weighed 290-403 g at the start of this experiment. Prior to receiving drug treatment, all animals were submitted to tactile stimulation and assigned to treatment groups matched on the basis of their pain response. No account was taken of the treatment administered during the first experiment in assigning animals to treatment groups for this experiment.
# (§10) All of the substances were administered orally. Morphine, dissolved in distilled water, was administered at 128 mg/kg dose p.o. Rats were tested 30 minutes, 1 hour, 2 hours, and 4 hours after administration of the substances.
# [3] = system: rats with spinal nerve ligature (Chung neuropathic pain model); experiment: Chung neuropathic pain model, cold allodynia on cold plate (Example 3); details: morphine 128 mg/kg p.o.; for change of total number of paw withdrawal responses: cold plate
# Description: as §9, §10
# Behavioral testing was carried out by measuring cold allodynia using an apparatus consisting of a cold plate maintained at 4±1° C. Rats were individually placed on the cold plate for a period of 5 minutes. The latency to the first paw withdrawal response and the number and total duration of withdrawal responses in 5 minutes were recorded for both the lesioned and the non-lesioned hindpaws.
# [4] = system: rats with spinal nerve ligature (Chung neuropathic pain model); experiment: Chung spinal nerve ligation (L5 and L6) neuropathic pain model, thermal stimulation (Example 2); details: for change of paw-withdrawal latency vs vehicle: morphine 16 mg/kg i.p.
# Description: as §1, §2, §3, §4, §5, §6, §7
# An apparatus (Ugo Basile, Product reference: 7371, Comerio, Italy) consisted of six individual Plexiglas® boxes (17×11×14 cm) placed upon an elevated glass floor. A rat was placed in the box and left free to habituate for 10 minutes. Then, a mobile infrared radiant source was focused under the non-lesioned and lesioned hindpaws. The paw-withdrawal latencies were automatically recorded. Paw withdrawal interrupts the reflected radiation and switches off the counter and the light source. In order to prevent tissue damage, the test was terminated after 45 seconds if no reaction was noted.
# Prior to receiving drug treatment, all animals were submitted to tactile stimulation and assigned to treatment groups, matched on the basis of their pain response. […]
# [5] = hypersensitivity test after 8 days of twice daily administration, morphine
structure (smiles),measurement,setting,value
"CN1CC[C@]23c4c5ccc(O)c4O[C@H]2[C@@H](O)C=C[C@H]3[C@H]1C5 [Morphine, morphine, reference compound]",change of force inducing paw withdrawal vs vehicle,"[1]; acute, morphine 16 mg/kg i.p., lesioned paw, 30 minutes",+206%
same,change of force inducing paw withdrawal vs vehicle,"[1]; acute, morphine 16 mg/kg i.p., lesioned paw, 1 hour",+124%
same,effect on force inducing paw withdrawal,"[1]; acute, morphine 16 mg/kg i.p., lesioned paw, 2 hours",tended to increase
same,effect on force inducing paw withdrawal,"[1]; acute, morphine 16 mg/kg i.p., non-lesioned paw",no effects
same,change of force inducing paw withdrawal vs vehicle,"[1]; chronic, day 10, morphine, lesioned paw, 30 minutes, p<0.01",+86%
same,change of force inducing paw withdrawal vs vehicle,"[1]; chronic, day 10, morphine, lesioned paw, 1 hour, p<0.001",+223%
same,change of force inducing paw withdrawal vs vehicle,"[1]; chronic, day 10, morphine, lesioned paw, 2 hours, p=0.09",−50%
same,effect on force inducing paw withdrawal,"[1]; chronic, day 10, morphine, non-lesioned paw","weak, variable effects"
same,Force Inducing Paw Withdrawal (g) Lesioned Paw,[1]; [5],15.1 (NS) g
same,Force Inducing Paw Withdrawal (g) Non-lesioned Paw,[1]; [5],73.7 (NS) g
same,effect on force inducing paw withdrawal vs vehicle control,"[1]; hypersensitivity test, repeated treatment with morphine, lesioned or non-lesioned paw",no significant effects
same,change of force inducing paw withdrawal vs vehicle,"[2]; 30 minutes, p<0.05",+137%
same,change of force inducing paw withdrawal vs vehicle,"[2]; 1 hour, p<0.01",+198%
same,change of force inducing paw withdrawal vs vehicle,"[2]; 2 hours, p=0.05",+168%
same,effect on force inducing paw withdrawal,[2]; non-lesioned paw,no effects
same,effect on paw-withdrawal latency of the first withdrawal,"[3]; cold plate 4°C, not statistically significant",tended to increase
same,change of total number of paw withdrawal responses,"[3]; 30 minutes, p<0.001",−61%
same,change of total number of paw withdrawal responses,"[3]; 1 hour, p<0.05",−65%
same,change of total number of paw withdrawal responses,"[3]; 2 hours, p<0.01",−51%
same,change of total number of paw withdrawal responses,"[3]; 4 hours, p<0.01",−56%
same,change of paw-withdrawal latency vs vehicle,"[4]; acute, lesioned paw, 30 minutes",+132%
same,change of paw-withdrawal latency vs vehicle,"[4]; acute, lesioned paw, 1 hour",+121%
same,change of paw-withdrawal latency vs vehicle,"[4]; acute, lesioned paw, 4 hours",+204%
same,change of paw-withdrawal latency vs vehicle,"[4]; acute, non-lesioned paw, 30 minutes, p<0.05",+15%
same,change of paw-withdrawal latency vs vehicle,"[4]; chronic, lesioned paw, 30 minutes, p<0.05",+108%
same,change of paw-withdrawal latency vs vehicle,"[4]; chronic, lesioned paw, 1 hour, p<0.05",93%
same,change of paw-withdrawal latency vs vehicle,"[4]; chronic, non-lesioned paw, 2 hours, p<0.05",−24%
same,change of paw-withdrawal latency vs vehicle,"[4]; chronic, non-lesioned paw, 4 hours, p<0.05",−23%
same,Paw Withdrawal Latency (s) Lesioned Paw,[4]; [5],11.7 (NS) s
same,Paw Withdrawal Latency (s) Non-lesioned Paw,[4]; [5],34.5 (NS) s
